# From PubChem BioAssay (NCI)
#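 The compound was tested at five concentrations on cells cultured in 96-well plates, with a 48-hour exposure period. GI50 = concentration required for 50% inhibition of growth. At the TGI there is no net growth.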
# Assays:
# Assay in all cases: NCI-60 cell line screen, 48 h
# MOLT-4 leukemia = test system: MOLT-4 leukemia
# UO-31 renal = test system: UO-31 renal
# EKVX NSCLC = test system: EKVX NSCLC
# CAKI-1 renal = test system: CAKI-1 renal
# SF-295 CNS = test system: SF-295 CNS
# MDA-MB-231 breast = test system: MDA-MB-231 breast
# M14 melanoma = test system: M14 melanoma
# OVCAR-3 ovarian = test system: OVCAR-3 ovarian
# MCF7 breast = test system: MCF7 breast
# HCC-2998 colon = test system: HCC-2998 colon
# NCI-H460 lung = test system: NCI-H460 lung
# ACHN renal = test system: ACHN renal
# SN12C renal = test system: SN12C renal
# SF-268 CNS = test system: SF-268 CNS
# A498 renal = test system: A498 renal
# LOX IMVI melanoma = test system: LOX IMVI melanoma
# SK-MEL-5 melanoma = test system: SK-MEL-5 melanoma
# HT29 colon = test system: HT29 colon
# SK-MEL-28 melanoma = test system: SK-MEL-28 melanoma
# K-562 leukemia = test system: K-562 leukemia
# U251 CNS = test system: U251 CNS
# OVCAR-8 ovarian = test system: OVCAR-8 ovarian
# KM12 colon = test system: KM12 colon
# UACC-257 melanoma = test system: UACC-257 melanoma
# NCI-H226 lung = test system: NCI-H226 lung
# SNB-75 CNS = test system: SNB-75 CNS
# SW-620 colon = test system: SW-620 colon
# OVCAR-4 ovarian = test system: OVCAR-4 ovarian
# RPMI-8226 leukemia = test system: RPMI-8226 leukemia
# HCT-116 colon = test system: HCT-116 colon
# NCI-H23 lung = test system: NCI-H23 lung
# SK-MEL-2 melanoma = test system: SK-MEL-2 melanoma
# MDA-MB-468 breast = test system: MDA-MB-468 breast
# CCRF-CEM leukemia = test system: CCRF-CEM leukemia
# OVCAR-5 ovarian = test system: OVCAR-5 ovarian
# HOP-62 NSCLC = test system: HOP-62 NSCLC
# HCT-15 colon = test system: HCT-15 colon
# HL-60(TB) leukemia = test system: HL-60(TB) leukemia
# MDA-MB-435 = test system: MDA-MB-435
# SF-539 CNS = test system: SF-539 CNS
# HOP-92 NSCLC = test system: HOP-92 NSCLC
# RXF 393 renal = test system: RXF 393 renal
# HS 578T breast = test system: HS 578T breast
# COLO 205 colon = test system: COLO 205 colon
# T-47D breast = test system: T-47D breast
# TK-10 renal = test system: TK-10 renal
# UACC-62 melanoma = test system: UACC-62 melanoma
# IGROV1 ovarian = test system: IGROV1 ovarian
# NCI-H522 lung = test system: NCI-H522 lung
# SNB-19 CNS = test system: SNB-19 CNS
# PC-3 prostate = test system: PC-3 prostate
# DU-145 prostate = test system: DU-145 prostate
# MALME-3M melanoma = test system: MALME-3M melanoma
# BT-549 breast = test system: BT-549 breast
# 786-0 renal = test system: 786-0 renal
# A549 NSCLC = test system: A549 NSCLC
# SK-OV-3 ovarian = test system: SK-OV-3 ovarian
# SR leukemia = test system: SR leukemia
smiles,measurement,setting,value
COc1cccc(-c2c(C#N)c(-c3ccc(Cl)cc3)nc3n[nH]c(-c4ccc(Cl)cc4)c23)c1,GI50,MOLT-4 leukemia,3.45 µM
same,TGI,MOLT-4 leukemia,49.2 µM
same,GI50,UO-31 renal,2.38 µM
same,TGI,UO-31 renal,72.7 µM
same,GI50,EKVX NSCLC,11.8 µM
same,TGI,EKVX NSCLC,> 100 µM
same,GI50,CAKI-1 renal,7.91 µM
same,TGI,CAKI-1 renal,32.9 µM
same,GI50,SF-295 CNS,12.1 µM
same,TGI,SF-295 CNS,33 µM
same,GI50,MDA-MB-231 breast,12.8 µM
same,TGI,MDA-MB-231 breast,35.1 µM
same,GI50,M14 melanoma,9.82 µM
same,TGI,M14 melanoma,34.1 µM
same,GI50,OVCAR-3 ovarian,9.27 µM
same,TGI,OVCAR-3 ovarian,80 µM
same,GI50,MCF7 breast,6 µM
same,TGI,MCF7 breast,> 100 µM
same,GI50,HCC-2998 colon,6.14 µM
same,TGI,HCC-2998 colon,31 µM
same,GI50,NCI-H460 lung,13.5 µM
same,TGI,NCI-H460 lung,46.7 µM
same,GI50,ACHN renal,13.6 µM
same,TGI,ACHN renal,> 100 µM
same,GI50,SN12C renal,12 µM
same,TGI,SN12C renal,> 100 µM
same,GI50,SF-268 CNS,14.8 µM
same,TGI,SF-268 CNS,> 100 µM
same,GI50,A498 renal,33.3 µM
same,TGI,A498 renal,> 100 µM
same,GI50,LOX IMVI melanoma,10.6 µM
same,TGI,LOX IMVI melanoma,28.9 µM
same,GI50,SK-MEL-5 melanoma,12.4 µM
same,TGI,SK-MEL-5 melanoma,26.3 µM
same,GI50,HT29 colon,9.76 µM
same,TGI,HT29 colon,29.8 µM
same,GI50,SK-MEL-28 melanoma,17.8 µM
same,TGI,SK-MEL-28 melanoma,74.8 µM
same,GI50,K-562 leukemia,4.01 µM
same,TGI,K-562 leukemia,78.6 µM
same,GI50,U251 CNS,13.6 µM
same,TGI,U251 CNS,> 100 µM
same,GI50,OVCAR-8 ovarian,20.9 µM
same,TGI,OVCAR-8 ovarian,> 100 µM
same,GI50,KM12 colon,8.81 µM
same,TGI,KM12 colon,> 100 µM
same,GI50,UACC-257 melanoma,22.7 µM
same,TGI,UACC-257 melanoma,93.3 µM
same,GI50,NCI-H226 lung,11.9 µM
same,TGI,NCI-H226 lung,49.1 µM
same,GI50,SNB-75 CNS,12.7 µM
same,TGI,SNB-75 CNS,64.3 µM
same,GI50,SW-620 colon,21.2 µM
same,TGI,SW-620 colon,> 100 µM
same,GI50,OVCAR-4 ovarian,4.96 µM
same,TGI,OVCAR-4 ovarian,86.4 µM
same,GI50,RPMI-8226 leukemia,4.44 µM
same,TGI,RPMI-8226 leukemia,> 100 µM
same,GI50,HCT-116 colon,4.66 µM
same,TGI,HCT-116 colon,26.2 µM
same,GI50,NCI-H23 lung,13.6 µM
same,TGI,NCI-H23 lung,> 100 µM
same,GI50,SK-MEL-2 melanoma,13.9 µM
same,TGI,SK-MEL-2 melanoma,30.1 µM
same,GI50,MDA-MB-468 breast,19.1 µM
same,TGI,MDA-MB-468 breast,> 100 µM
same,GI50,CCRF-CEM leukemia,6.56 µM
same,TGI,CCRF-CEM leukemia,> 100 µM
same,GI50,OVCAR-5 ovarian,11.2 µM
same,TGI,OVCAR-5 ovarian,50.8 µM
same,GI50,HOP-62 NSCLC,16.4 µM
same,TGI,HOP-62 NSCLC,80.6 µM
same,GI50,HCT-15 colon,4.16 µM
same,TGI,HCT-15 colon,27.8 µM
same,GI50,HL-60(TB) leukemia,4.77 µM
same,TGI,HL-60(TB) leukemia,43.5 µM
same,GI50,MDA-MB-435,13.4 µM
same,TGI,MDA-MB-435,37.2 µM
same,GI50,SF-539 CNS,8.28 µM
same,TGI,SF-539 CNS,25.9 µM
same,GI50,HOP-92 NSCLC,2.35 µM
same,TGI,HOP-92 NSCLC,9.24 µM
same,GI50,RXF 393 renal,11.5 µM
same,TGI,RXF 393 renal,79.3 µM
same,GI50,HS 578T breast,11.1 µM
same,TGI,HS 578T breast,89.6 µM
same,GI50,COLO 205 colon,11.3 µM
same,TGI,COLO 205 colon,25.2 µM
same,GI50,T-47D breast,3.42 µM
same,TGI,T-47D breast,77.8 µM
same,GI50,TK-10 renal,38 µM
same,TGI,TK-10 renal,> 100 µM
same,GI50,UACC-62 melanoma,12.6 µM
same,TGI,UACC-62 melanoma,29.1 µM
same,GI50,IGROV1 ovarian,16 µM
same,TGI,IGROV1 ovarian,68 µM
same,GI50,NCI-H522 lung,16.1 µM
same,TGI,NCI-H522 lung,92.7 µM
same,GI50,SNB-19 CNS,20 µM
same,TGI,SNB-19 CNS,> 100 µM
same,GI50,PC-3 prostate,3.19 µM
same,TGI,PC-3 prostate,> 100 µM
same,GI50,DU-145 prostate,21 µM
same,TGI,DU-145 prostate,> 100 µM
same,GI50,MALME-3M melanoma,11.5 µM
same,TGI,MALME-3M melanoma,31.7 µM
same,GI50,BT-549 breast,6.07 µM
same,TGI,BT-549 breast,27.4 µM
same,GI50,786-0 renal,11.2 µM
same,TGI,786-0 renal,> 100 µM
same,GI50,A549 NSCLC,15.1 µM
same,TGI,A549 NSCLC,> 100 µM
same,GI50,SK-OV-3 ovarian,18.1 µM
same,TGI,SK-OV-3 ovarian,98.7 µM
same,GI50,SR leukemia,7.09 µM
same,TGI,SR leukemia,50.3 µM
